{
  "source": "patent US9932637B2",
  "about": "“Genetic polymorphisms associated with cardiovascular disorders and drug response, methods of detection and uses thereof” (CELERA CORPORATION, priority 2003, dated 2018)",
  "test_system": "patients with prior myocardial infarction (CARE study)",
  "assay": "CARE aligned analysis (prospective and case/control design, white males): association of genotypes with pravastatin efficacy (Tables 13, 15)",
  "type": "in vivo, human",
  "conditions": "for Pravastatin Patients (%) / Pravastatin Patients n/total / 2 Rare Alleles (%), Pravastatin Patients / 2 Rare Alleles n/total, Pravastatin Patients: F&NF MI; for Pravastatin Patients (%) / Pravastatin Patients n/total: WM; for 2 rare alleles n/total (%), pravastatin patients / Pravastatin vs placebo odds ratio, 0 rare alleles / Pravastatin vs placebo odds ratio, 1 rare allele / Pravastatin vs placebo odds ratio, 2 rare alleles: CARE, F MI/SD/NF MI",
  "procedure": "The data presented in Table 8 based on an association of genotypes with pravastatin efficacy of the CARE samples were further analyzed and presented in Table 13. The further analysis was performed to align the data obtained from the analysis of the CARE samples, which was a prospective study, to the analysis of the WOSCOP samples, which was a case/control study. Table 13 also presents an analysis of the association of genotypes with pravastatin efficacy in the WOSCOPs samples. Relative to the analysis performed on the data presented in Table 8, there are two significant differences to determine if the SNP influenced pravastatin efficacy. Data obtained from the CARE samples were separated by study design into two groups, those in the prospective study design group and those in the case/control study design group. The original care study contained 16 protocol defined cardiovascular disease defined endpoints and 150 other phenotypes. […] The control groups used to compare the data were also divided into two groups, the “all possible” control group and the “cleaner” control group. […] Because the participants in the WOSCOPs trial were all white males, only data obtained from white males in the CARE study were analysed. Data from the “all possible” and “cleaner” controls were compared to data obtained from the cases in the prospective study design while only data from “cleaner” controls were compared to cases in the case/control study design. The data from the case/control cohorts were analysed using conditional logistic regression (as opposed to logistic regression used for the original anaylsis).\nThe anaylsis was refined as described for both Tables 13 and 14.",
  "key": {"[1]": {"conditions": "HLA-DPB1 hCV8851085, 0 Rare Alleles, CARE Prospective, Cleaner controls"}, "[2]": {"conditions": "HLA-DPB1 hCV8851085, 1 Rare Allele, CARE Case/Control, All Possible controls"}, "[3]": {"conditions": "HLA-DPB1 hCV8851085, 1 Rare Allele, CARE Case/Control, Cleaner controls"}, "[4]": {"conditions": "HLA-DPB1 hCV8851085, 1 Rare Allele, CARE Prospective, All Possible controls"}, "[5]": {"conditions": "HLA-DPB1 hCV8851085, 1 Rare Allele, CARE Prospective, Cleaner controls"}, "[6]": {"conditions": "HLA-DPB1 hCV8851085, Case/Control"}, "[7]": {"conditions": "HLA-DPB1 hCV8851085, Prospective"}, "[8]": {"conditions": "HLA-DPB1 hCV25651174, Case/Control"}, "[9]": {"conditions": "HLA-DPB1 hCV25651174, Prospective"}, "[10]": {"conditions": "HLA-DQB1 hCV9494470, 0 Rare Alleles, CARE Case/Control, All Possible controls"}, "[11]": {"conditions": "HLA-DQB1 hCV9494470, 0 Rare Alleles, CARE Case/Control, Cleaner controls"}, "[12]": {"conditions": "HLA-DQB1 hCV9494470, 0 Rare Alleles, CARE Prospective, All Possible controls"}, "[13]": {"conditions": "HLA-DQB1 hCV9494470, 0 Rare Alleles, CARE Prospective, Cleaner controls"}, "[14]": {"conditions": "HLA-DQB1 hCV9494470, 1 Rare Allele, CARE Case/Control, All Possible controls"}, "[15]": {"conditions": "HLA-DQB1 hCV9494470, 1 Rare Allele, CARE Case/Control, Cleaner controls"}, "[16]": {"conditions": "HLA-DQB1 hCV9494470, 1 Rare Allele, CARE Prospective, All Possible controls"}, "[17]": {"conditions": "HLA-DQB1 hCV9494470, 1 Rare Allele, CARE Prospective, Cleaner controls"}, "[18]": {"conditions": "HLA-DQB1 hCV9494470, Case/Control"}, "[19]": {"conditions": "HLA-DQB1 hCV9494470, Prospective"}, "[20]": {"conditions": "IL1RN hCV8737990, 0 Rare Alleles, CARE Case/Control, Cleaner controls"}, "[21]": {"conditions": "IL1RN hCV8737990, 0 Rare Alleles, CARE Prospective, All Possible controls"}, "[22]": {"conditions": "IL1RN hCV8737990, 0 Rare Alleles, CARE Prospective, Cleaner controls"}, "[23]": {"conditions": "IL1RN hCV8737990, 1 Rare Allele, CARE Case/Control, Cleaner controls"}, "[24]": {"conditions": "IL1RN hCV8737990, 1 Rare Allele, CARE Prospective, All Possible controls"}, "[25]": {"conditions": "IL1RN hCV8737990, 1 Rare Allele, CARE Prospective, Cleaner controls"}},
  "note": "Where “and” joins values, the source holds several entries; their conditions need not be identical. Equal entries are not always repeated.",
  "data": [
    {"smiles": "CC[C@H](C)C(=O)O[C@H]1C[C@H](O)C=C2C=C[C@H](C)[C@H](CC[C@@H](O)C[C@@H](O)CC(=O)O)[C@H]21", "note": "[pravastatin]", "values": [
      {"measurement": "Pravastatin Patients (%)", "setting": "[1]", "result": "(14.1%)"},
      {"measurement": "Pravastatin Patients n/total", "setting": "[1]", "result": "74/523"},
      {"measurement": "Pravastatin Patients (%)", "setting": "[2]", "result": "(10.3%)"},
      {"measurement": "Pravastatin Patients n/total", "setting": "[2]", "result": "44/426"},
      {"measurement": "Pravastatin Patients (%)", "setting": "[3]", "result": "(15.1%)"},
      {"measurement": "Pravastatin Patients n/total", "setting": "[3]", "result": "44/292"},
      {"measurement": "Pravastatin Patients (%)", "setting": "[4]", "result": "(10.2%)"},
      {"measurement": "Pravastatin Patients n/total", "setting": "[4]", "result": "44/433"},
      {"measurement": "Pravastatin Patients (%)", "setting": "[5]", "result": "(14.9%)"},
      {"measurement": "Pravastatin Patients n/total", "setting": "[5]", "result": "44/295"},
      {"measurement": "2 Rare Alleles (%), Pravastatin Patients", "setting": "HLA-DPB1 hCV8851085, CARE Case/Control", "result": "(25.7%)"},
      {"measurement": "2 rare alleles n/total (%), pravastatin patients", "setting": "[6]", "result": "(22.9%)"},
      {"measurement": "Pravastatin vs placebo odds ratio, 0 rare alleles", "setting": "[6]", "result": 0.57},
      {"measurement": "Pravastatin vs placebo odds ratio, 1 rare allele", "setting": "[6]", "result": 0.87},
      {"measurement": "Pravastatin vs placebo odds ratio, 2 rare alleles", "setting": "[6]", "result": 4.69},
      {"measurement": "2 rare alleles n/total (%), pravastatin patients", "setting": "[7]", "result": "(22.9%)"},
      {"measurement": "Pravastatin vs placebo odds ratio, 0 rare alleles", "setting": "[7]", "result": 0.58},
      {"measurement": "Pravastatin vs placebo odds ratio, 1 rare allele", "setting": "[7]", "result": 0.85},
      {"measurement": "Pravastatin vs placebo odds ratio, 2 rare alleles", "setting": "[7]", "result": 4.15},
      {"measurement": "2 Rare Alleles n/total, Pravastatin Patients", "setting": "HLA-DPB1 hCV25651174, CARE Case/Control", "result": "17/109"},
      {"measurement": "2 Rare Alleles n/total, Pravastatin Patients", "setting": "HLA-DPB1 hCV25651174, CARE Prospective", "result": "17/110 and 17/77"},
      {"measurement": "Pravastatin vs placebo odds ratio, 0 rare alleles", "setting": "[8]", "result": "0.59 and 0.51"},
      {"measurement": "Pravastatin vs placebo odds ratio, 1 rare allele", "setting": "[8]", "result": "0.84 and 0.75"},
      {"measurement": "Pravastatin vs placebo odds ratio, 2 rare alleles", "setting": "[8]", "result": "4.39 and 4.91"},
      {"measurement": "Pravastatin vs placebo odds ratio, 0 rare alleles", "setting": "[9]", "result": "0.59 and 0.52"},
      {"measurement": "Pravastatin vs placebo odds ratio, 1 rare allele", "setting": "[9]", "result": "0.84 and 0.72"},
      {"measurement": "Pravastatin vs placebo odds ratio, 2 rare alleles", "setting": "[9]", "result": "4.29 and 4.60"},
      {"measurement": "Pravastatin Patients (%)", "setting": "[10]", "result": "(11.1%)"},
      {"measurement": "Pravastatin Patients n/total", "setting": "[10]", "result": "92/826"},
      {"measurement": "Pravastatin Patients (%)", "setting": "[11]", "result": "(16.1%)"},
      {"measurement": "Pravastatin Patients n/total", "setting": "[11]", "result": "92/572"},
      {"measurement": "Pravastatin Patients (%)", "setting": "[12]", "result": "(11.0%)"},
      {"measurement": "Pravastatin Patients n/total", "setting": "[12]", "result": "92/840"},
      {"measurement": "Pravastatin Patients (%)", "setting": "[13]", "result": "(15.8%)"},
      {"measurement": "Pravastatin Patients n/total", "setting": "[13]", "result": "92/583"},
      {"measurement": "Pravastatin Patients (%)", "setting": "[14]", "result": "(7.9%)"},
      {"measurement": "Pravastatin Patients n/total", "setting": "[14]", "result": "28/353"},
      {"measurement": "Pravastatin Patients (%)", "setting": "[15]", "result": "(11.5%)"},
      {"measurement": "Pravastatin Patients n/total", "setting": "[15]", "result": "28/244"},
      {"measurement": "Pravastatin Patients (%)", "setting": "[16]", "result": "(7.8%)"},
      {"measurement": "Pravastatin Patients n/total", "setting": "[16]", "result": "28/361"},
      {"measurement": "Pravastatin Patients (%)", "setting": "[17]", "result": "(11.3%)"},
      {"measurement": "Pravastatin Patients n/total", "setting": "[17]", "result": "28/247"},
      {"measurement": "Pravastatin vs placebo odds ratio, 0 rare alleles", "setting": "[18]", "result": "0.99 and 0.90"},
      {"measurement": "Pravastatin vs placebo odds ratio, 1 rare allele", "setting": "[18]", "result": "0.40 and 0.36"},
      {"measurement": "Pravastatin vs placebo odds ratio, 2 rare alleles", "setting": "[18]", "result": "2.00 and 2.22"},
      {"measurement": "Pravastatin vs placebo odds ratio, 0 rare alleles", "setting": "[19]", "result": "0.99 and 0.87"},
      {"measurement": "Pravastatin vs placebo odds ratio, 1 rare allele", "setting": "[19]", "result": "0.42 and 0.38"},
      {"measurement": "Pravastatin vs placebo odds ratio, 2 rare alleles", "setting": "[19]", "result": "2.06 and 2.16"},
      {"measurement": "Pravastatin Patients (%)", "setting": "[20]", "result": "(14.9%)"},
      {"measurement": "Pravastatin Patients n/total", "setting": "[20]", "result": "66/444"},
      {"measurement": "Pravastatin Patients (%)", "setting": "[21]", "result": "(10.3%)"},
      {"measurement": "Pravastatin Patients n/total", "setting": "[21]", "result": "66/642"},
      {"measurement": "Pravastatin Patients (%)", "setting": "[22]", "result": "(14.6%)"},
      {"measurement": "Pravastatin Patients n/total", "setting": "[22]", "result": "66/453"},
      {"measurement": "Pravastatin Patients (%)", "setting": "[23]", "result": "(13.0%)"},
      {"measurement": "Pravastatin Patients n/total", "setting": "[23]", "result": "43/332"},
      {"measurement": "Pravastatin Patients (%)", "setting": "[24]", "result": "(8.7%)"},
      {"measurement": "Pravastatin Patients n/total", "setting": "[24]", "result": "43/496"},
      {"measurement": "Pravastatin Patients (%)", "setting": "[25]", "result": "(12.8%)"},
      {"measurement": "Pravastatin Patients n/total", "setting": "[25]", "result": "43/336"},
      {"measurement": "2 Rare Alleles (%), Pravastatin Patients", "setting": "IL1RN hCV8737990, CARE Case/Control", "result": "(27.4%)"},
      {"measurement": "2 rare alleles n/total (%), pravastatin patients", "setting": "IL1RN hCV8737990, Case/Control", "result": "(21.1%)"},
      {"measurement": "Pravastatin vs placebo odds ratio, 0 rare alleles", "setting": "IL1RN hCV8737990, Case/Control", "result": 0.77},
      {"measurement": "Pravastatin vs placebo odds ratio, 1 rare allele", "setting": "IL1RN hCV8737990, Case/Control", "result": 0.50},
      {"measurement": "Pravastatin vs placebo odds ratio, 2 rare alleles", "setting": "IL1RN hCV8737990, Case/Control", "result": 1.97},
      {"measurement": "2 rare alleles n/total (%), pravastatin patients", "setting": "IL1RN hCV8737990, Prospective", "result": "(20.7%)"},
      {"measurement": "Pravastatin vs placebo odds ratio, 0 rare alleles", "setting": "IL1RN hCV8737990, Prospective", "result": 0.80},
      {"measurement": "Pravastatin vs placebo odds ratio, 1 rare allele", "setting": "IL1RN hCV8737990, Prospective", "result": 0.46},
      {"measurement": "Pravastatin vs placebo odds ratio, 2 rare alleles", "setting": "IL1RN hCV8737990, Prospective", "result": 1.92},
      {"measurement": "Pravastatin vs placebo odds ratio, 0 rare alleles", "setting": "IL4R hCV2769554, Case/Control", "result": "0.58 and 0.57"}
    ]}
  ]
}
